Consider three compounds from US20250161287A1, “METHODS, COMPOSITIONS, AND COMBINATIONS FOR PREVENTING OR TREATING CANCER RECURRENCE” (VUJA DE SCIENCES, INC., priority 2022, published 2025).

For data set [1], the system named is MG63.3 OS cell line. In words: in vitro 3D BME assay with MG63.3 OS cell line. It counts as cell-based, human. The following applies: for effect on metastatic phenotype / 3D growth in 3D BME (words): MG63.3, Day 6 MTS, at or below 1 μM; for minimal effective concentration: Homo sapiens, MG-63.3, MG63.3 on 3D BME, vs vehicle control, replicates=4, read-out: lowest dose leading to appreciable inhibition of 3D growth; for activity on 3D BME compared with 2D: MG63.3, 3D BME vs 2D MTT 72 h. From the text:
(§1) 3D basement membrane extract (BME) assay was developed at the NCI Barkan (D. Barkan et al. 2008; Dalit Barkan and Green 2011; Hen and Barkan 2020). BME is purified from Engelbreth-Holm-Swarm (EHS) tumor, primarily made up of laminin, collagen IV, entactin, and heparin sulfate proteoglycans (Cultrex Reduced Growth Factor Basement Membrane Extract, PathClear n.d.), which allows it to more accurately reflect the 3D extracellular environment in the body.
(§2) Initially >150 selected therapeutic agents were tested on BME based on the likelihood for either a positive effect or a […] negative effect (as negative controls). […] These therapeutic agents were also tested in dose response (as broad as 1 pM-100 μM) for 2D cytotoxicity (MTT) and the IC50 was calculated. Where required, the hits from the initial screen were also further characterized at additional doses <100 nM in order to further determine the relative selectivity compared to the 2D IC50.
(§3) The influence of drug exposure on the metastatic phenotype was assessed in an in vitro assay of ME and escape from dormancy using a 3D BME assay as previously reported, which was adapted for use with OS cells.
(§4) Cultrex® PathClear, Reduced Growth Factor Basement Membrane Extract (BME—Bio-Techne, Minneapolis, MN) was added ([…]) to a 96-well plate and allowed to gel by incubating at 37° C. for ≥30 min. Cells were harvested, washed with DMEM (no glucose, no FBS, Gibco, Grand Island, NY) and centrifuged at 1500 g×5 mins. The media was aspirated and the remaining cell pellet flicked for about 10 s to ensure disaggregation.
(§5) Cells were diluted in assay media containing 2% BME, resuspended vigorously and 150 μL of the cell suspension was added on top of the gelled 3D BME layer. […] Cell numbers were determined in control vehicle (cells in media+0.1% DMSO), or treated wells and were measured on the indicated days by addition of 20 μL/well of MTS reagent (Cell Titer 96 Aqueous One, Promega, Madison, WI), followed by incubation at 37° C. for 2 h and absorbance measurements at 490 nm via plate reader (Molecular Devices, San Jose CA).
(§6) All conditions were conducted in quadruplicate and each experiment was carried out at least 3 separate times. All comparisons were made between treatment and vehicle control at concordant time points. Statistical analyses and non-linear regressions were derived using GraphPad Prism statistical software.

Data set [2] relates to MG63.3 OS cell line. In words: 2D growth / cytotoxicity by MTT, MG63.3. On the procedure: The number of viable cells present in 2D culture was determined by MTT as previously reported. Briefly, cells were plated in 96-well plates at 2,000 cells/well and incubated at 37° C. for 24 h. After 24 h, the media was replaced with fresh media containing drugs at the desired concentrations (10 pM-10 μM) and incubated at 37° C. for 72 h. After 72 h, MTT reagent (20 L/well of a 5 mg/mL stock solution in sterile water; Sigma, St. Louis, MO) was added to each well and the plate was incubated at 37° C. for 2 h. DMSO ([…]) was then added to each well to solubilize the formazan crystals.
(§7) The resulting absorbance was measured at 490 nm via plate reader (Molecular Devices, San Jose, CA). DMSO (0.1%) was used as vehicle control, while 20 μM rapamycin was used as a positive cell-kill control. The experimental conditions were conducted in triplicate and each experiment was repeated three times. Regression lines and IC50's were calculated using a four-parameter variable slope nonlinear fit in GraphPad Prism.

The test system of data set [3] is K7M2 OS cell line. In words: in vitro 3D BME assay with K7M2 OS cell line. It counts as cell-based, mouse. The following applies: K7M2, Day 6 MTS, at or below 1 μM.
From the text: as §1, §2, §3, §4, §5, §6

Data set [4] deals with K7M2 OS cell line. In words: 2D growth / cytotoxicity by MTT, K7M2. Type of data set: cell-based, mouse. On the procedure: The number of viable cells present in 2D culture was determined by MTT as previously reported. Briefly, cells were plated in 96-well plates at 2,000 cells/well and incubated at 37° C. for 24 h. […] After 72 h, MTT reagent (20 L/well of a 5 mg/mL stock solution in sterile water; Sigma, St. Louis, MO) was added to each well and the plate was incubated at 37° C. for 2 h. DMSO ([…]) was then added to each well to solubilize the formazan crystals.
as §7

The next data set addresses JAK1 (Homo sapiens, UniProt P23458). The following applies: cited from earlier work.
The subject of another data set is MG63.3 OS cells. In words: in vitro SISGel assay with highly metastatic MG63.3 OS cells. It counts as cell-based, human. The following applies: for activity on 3D SISGel compared with 2D: MG63.3, SISGel vs 2D MTT 72 h; for lowest dose leading to appreciable inhibition of 3D growth: MG63.3 on SISGel, vs vehicle control, replicates=4. From the text: SISGel is comprised of porcine small intestine submucosa gel that was originally developed at Oklahoma State U., by R. Hurst (CSO) and M. Ihnat (Consultant) (Bailey-Downs et al. 2014; Hurst et al. 2013, 2015, 2016). Unlike BME which is derived from a tumor-based matrix, SISGel is derived from healthy stroma and provides a suppressive “normal” ECM. […] Conditions have been identified that promoted suppressed ME-type profile (FIG. 2A). […] In addition to SISGel's complementarity to the BME assay, it can also be conducted in a 96-well format, enabling a high-throughput system to model suppressed/dormant cancer cells to further validate the screening results in BME.

A further data set concerns MG63.3 human OS cells. In words: PuMA (ex vivo Pulmonary Metastasis Assay) with MG63.3. Type of data set: cell-based. The following applies: single agents, two doses: 100 nM and 1 μM (rapamycin 100 nM and 1 pM [sic]; AZD8055 10 and 100 nM), replicates=3-5. On the procedure:
FIG. 23A is a schematic illustrating the metastatic progression of GFP-expressing OS cells conducted by injecting single cells via tail vein injection, followed by lung excision and insufflation 15 mins post-injection. The formation of multicellular colonies in the mouse lung microenvironment can be assessed 14-21 days post-injection.
Dissected lungs are then sectioned and grown on sponges.

Chain of JAK1 (P23458 whole entry, species assumed): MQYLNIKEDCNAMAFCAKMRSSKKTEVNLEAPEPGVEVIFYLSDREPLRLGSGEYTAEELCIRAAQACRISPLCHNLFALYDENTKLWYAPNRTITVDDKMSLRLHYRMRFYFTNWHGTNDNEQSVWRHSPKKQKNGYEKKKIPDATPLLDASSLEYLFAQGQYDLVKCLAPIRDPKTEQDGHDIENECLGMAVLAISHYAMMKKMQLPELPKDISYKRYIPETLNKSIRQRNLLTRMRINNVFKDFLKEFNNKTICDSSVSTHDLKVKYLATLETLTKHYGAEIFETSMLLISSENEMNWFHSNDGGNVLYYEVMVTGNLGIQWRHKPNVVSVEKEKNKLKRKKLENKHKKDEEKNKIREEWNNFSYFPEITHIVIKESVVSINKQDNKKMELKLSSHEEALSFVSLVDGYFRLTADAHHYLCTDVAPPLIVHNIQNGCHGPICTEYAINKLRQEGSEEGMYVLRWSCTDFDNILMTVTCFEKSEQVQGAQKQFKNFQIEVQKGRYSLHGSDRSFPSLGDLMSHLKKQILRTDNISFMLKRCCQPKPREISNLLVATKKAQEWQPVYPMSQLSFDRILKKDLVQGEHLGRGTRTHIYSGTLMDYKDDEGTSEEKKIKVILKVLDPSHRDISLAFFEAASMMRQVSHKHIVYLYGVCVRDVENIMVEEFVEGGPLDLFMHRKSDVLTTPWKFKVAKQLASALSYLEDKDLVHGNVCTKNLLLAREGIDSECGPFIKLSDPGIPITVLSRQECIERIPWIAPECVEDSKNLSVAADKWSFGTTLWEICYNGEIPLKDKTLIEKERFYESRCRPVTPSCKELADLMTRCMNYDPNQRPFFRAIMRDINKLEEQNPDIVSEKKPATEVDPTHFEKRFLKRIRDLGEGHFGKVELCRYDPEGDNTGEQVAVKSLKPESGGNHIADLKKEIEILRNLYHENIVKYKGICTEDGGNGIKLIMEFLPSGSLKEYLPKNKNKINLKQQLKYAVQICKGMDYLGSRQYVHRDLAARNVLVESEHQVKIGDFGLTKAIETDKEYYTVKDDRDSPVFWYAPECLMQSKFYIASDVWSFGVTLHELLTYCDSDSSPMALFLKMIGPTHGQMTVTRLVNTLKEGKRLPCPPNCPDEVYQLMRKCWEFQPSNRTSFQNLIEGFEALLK

In the case of `CNS(=O)(=O)C[C@H]1CC[C@H](N(C)c2ncnc3[nH]ccc23)CC1` [oclacitinib], the “effect on metastatic phenotype / 3D growth in 3D BME (words)” value in the data set on MG63.3 OS cell line [1] is on record as “did not inhibit MG63.3 cells at any dose”; in the data set with MG63.3 OS cell line [1] (listed as Oclacitinib) it was “no significant effect”; in the data set with K7M2 OS cell line [3] it was “statistically significant but very minimal inhibition”; in the data set on K7M2 OS cell line [3] (listed as Oclacitinib), “statistically significant but very small level of inhibition”. Moreover, the “effect on cell number in 2D monolayer” value in the data set with MG63.3 OS cell line [2] (MG63.3, MTT, exposures up to 1 μM / assessed exposures) was “minimal inhibition of OS cell number”; in the data set with K7M2 OS cell line [4] (K7M2, MTT, exposures up to 1 μM), “minimal inhibition of OS cell number”. In addition, the “non-cytotoxic drug exposures in 2D” value in the data set on K7M2 OS cell line [4] (K7M2, MTT 72 h, 10 pM-100 μM) is given as “below 1 μM”. On JAK1, the “inhibitory action against JAK1 relative to JAK2” value is listed as 1.8 times. Moreover, at JAK1, the “inhibitory action against JAK1 relative to JAK3” value is given as 9.9 times.

As to `CO[C@H]1C[C@@H]2CC[C@@H](C)[C@@](O)(O2)C(=O)C(=O)N2CCCC[C@H]2C(=O)O[C@H]([C@H](C)C[C@@H]2CC[C@@H](OP(C)(C)=O)[C@H](OC)C2)CC(=O)[C@H](C)/C=C(\C)[C@@H](O)[C@@H](OC)C(=O)[C@H](C)C[C@H](C)/C=C/C=C/C=C/1C` [ridaforolimus], in the data set with MG63.3 OS cell line [1], the minimal effective concentration came to 0.001 µM and the “activity on 3D BME compared with 2D” value is reported as “much stronger activity on 3D BME at significantly lower doses”. In the data set on MG63.3 OS cell line [2] (human, 72 h), the “doses exhibiting cytotoxicity on 2D growth” value is over 33 µM. For the same compound, in the data set on MG63.3 OS cells, the “activity on 3D SISGel compared with 2D” value is given as “much stronger activity on 3D SISGel at significantly lower doses” and the “lowest dose leading to appreciable inhibition of 3D growth” value was determined as 100 pM. Moreover, the “inhibition of ME (loss of GFP signal in the lung tissue)” value in the data set on MG63.3 human OS cells is given as “strong inhibition of ME”.

Turning to `CO[C@H]1C[C@@H]2CC[C@@H](C)[C@@](O)(O2)C(=O)C(=O)N2CCCC[C@H]2C(=O)O[C@H]([C@H](C)C[C@@H]2CC[C@@H](OC(=O)C(C)(CO)CO)[C@H](OC)C2)CC(=O)[C@H](C)/C=C(\C)[C@@H](O)[C@@H](OC)C(=O)[C@H](C)C[C@H](C)/C=C/C=C/C=C/1C` [temsirolimus], in the data set with MG63.3 OS cell line [1], the minimal effective concentration is 0.001 µM and the “activity on 3D BME compared with 2D” value is reported as “much stronger activity on 3D BME at significantly lower doses”. In addition, in the data set on MG63.3 OS cells, the “activity on 3D SISGel compared with 2D” value is “much stronger activity on 3D SISGel at significantly lower doses” and the “lowest dose leading to appreciable inhibition of 3D growth” value came to 1 pM. Besides, the “inhibition of ME (loss of GFP signal in the lung tissue)” value in the data set with MG63.3 human OS cells was “strong inhibition of ME”.
